From US20050049273A1, “Acridone derivatives as anti-herpesvirus agents” (priority 2003, published 2005)
Read-outs that look alike come from different tables or passages of the source.

Tests used:
HCMV = HCMV plaque-elimination assay in HEL cells; assay type: cell-based, HCMV (Towne); details: for EC50: read-out: ED50 HCMV; for inhibition of HCMV replication in plaque-elimination screen: fixed concentration, five micromolar (1, 2, ACV ten micromolar; PFA 250 micromolar), FIG. 3; for activity against HCMV, in words: quantitative comparison, Table 1; for percent inhibition observed at the highest concentration tested, HCMV: number in parenthesis, NA = no activity observed
Experimental: Virus and cell growth inhibition assays. Established virus culture techniques were used (E.-S. Huang, and T Kowalnick, Diagnosis of human cytomegalovirus infection: laboratory approaches, in Molecular Aspects of Human Cytomegalovirus Diseases (Becker,Y., Daria, G., and Huang, E.-S. eds.), Springer-Verlag, Berlin, pp. 225-255 (1993); Akanitapichat et al., Antiviral Research 45: 123-134 (2000)) but with the following modifications. For the HCMV plaque-elimination assay, HEL cells were plated in standard medium at 60,000 per cm^2 and infected the following day with 50-100 PFU HCMV for 90 minutes with occasional agitation. The inoculate was replaced with maintenance medium containing 5% (v/v) fetal calf serum and test agents as indicated (see below). After an additional 6-10 days of culture, cells were fixed with formal saline (10% formalin in phosphate-buffered saline; PBS), stained with 0.1% (w/v) toluidine blue in PBS and plaques were scored using an inverted light microscope at 40x magnification (FIGS. 2A and 3). For ED50 determination, the value was interpolated from dose-response data and is the concentration of compound that reduced plaque formation by 50% relative to control under the specified condition.

HSV-2 [1] = assay: HSV-2 plaque-elimination assay in Vero cells; assay type: cell-based, HSV-2 (strain 186); details: fixed concentration, five micromolar (1, 2, ACV ten micromolar; PFA 250 micromolar), Vero cells, FIG. 3
Experimental: (§1) Three types of antiviral assay were used for HSV studies. For plaque-elimination, Vero cells (70000 per cm^2) were infected with 50-100 PFU for 30 minutes with occasional agitation. The inoculate was replaced with medium containing 1% (v/v) fetal calf serum and supplemented with test agents as indicated (see below). After two days of culture, cells were processed using crystal violet staining and plaques were scored by visual examination (FIG. 3). For examination of anti-HSV activity in parallel cultures during biochemical experiments, the progeny virus obtained from cells and from the culture medium at 23 hours post-infection was determined by limiting dilution on Vero cells (FIG. 5A). Macroscopic viral plaques were scored after two days of incubation in medium containing 1% (w/v) carboxymethylcellulose and 0.5% (v/v) fetal calf serum. For ED50 measurements, the concentration of compound that reduced a single-cycle of viral yield by 50% relative to the control and under the specified condition was interpolated from dose-response graphs (FIG. 4, Table 1). Over the course of ten independent experiments, the mean cell-associated viral yield was 180 PFU per cell (SD=80) and 10 PFU per cell (SD=5) for HSV-1 and HSV-2 respectively. The percent viral release (into the culture medium) was 16 (SD=7) and 0.9 (SD=0.6) for HSV-1 and HSV-2 respectively. These virologic parameters were independent of viral load and serum concentration.

HEL = HEL cell growth inhibition (Sulforhodamine B protein-dye binding); assay type: cell-based, human; details: for percent inhibition observed at the highest concentration tested, HEL growth: number in parenthesis, NA = no activity observed
Experimental: (§2) The effect of compounds on host cell replication (CC50), was measured using Sulforhodamine B-staining and the spectrophotometric method originally developed for the NCIs's in vitro anti-cancer drug screening program (P. Skehan et al., J. Natl. Cancer. Inst. 82, 1107-1112 (1990)). The CC50 value is the concentration of compound that inhibited actively replicating cells by 50% of control respectively after two days of continuous treatment.

[2] = as above; assay type: cell-based, human; details: human, cell growth inhibition, two days of continuous treatment
Experimental: as §2

Vero = Vero cell growth inhibition (Sulforhodamine B protein-dye binding); assay type: cell-based, African green monkey; details: for percent inhibition observed at the highest concentration tested, Vero growth: number in parenthesis
Experimental: as §2

[3] = as above; assay type: cell-based, African green monkey; details: African green monkey
Experimental: as §2

HSV-2 [4] = assay: HSV-2 viral yield-reduction assay in Vero cells; assay type: cell-based, HSV-2 (strain 186); details: for EC50: read-out: ED50 HSV-2
Experimental: as §1

HSV = details: published work; cited from earlier work
host cell replication = assay: Host cell replication (CC50), host cell not specified; assay type: cell-based; details: mean CC50
Experimental: as §2

[5] = system: HSV-2 late viral proteins; assay: HSV-2 late viral protein synthesis (pulse labeling, SDS-PAGE, phosphor-imaging); assay type: cell-based; details: twenty micromolar, 0.1 PFU, 2% (v/v) serum
Experimental: Analysis of HSV proteins. Viral protein synthesis was examined using pulse labeling, SDS-PAGE gel separation and phosphor-imaging. Vero cells were infected and treated under conditions specified below and in FIG. 5. After 17 hours of infection, 10 μCi/mL TRAN^35S-LABEL ™ was added directly to culture medium and incubation continued for 30 more minutes. Radio-labeled cell cultures were carefully washed with PBS pre-warmed to 37° C. then lysed at 2,000,000 cells per mL in the same buffer supplemented with 2% (w/v) SDS. After denaturing cell lysates in Laemmli loading buffer, total proteins recovered from 30,000 cells were separated using either 8% (FIG. 5B) or 10% (FIG. 5D) PAGE-SDS gels (U. Laemmli, Nature, 227,680-685 (1970)). Proteins were transferred to nitrocellulose and the synthesized proteins were visualized and quantified using a STORM phosphorimager (Molecular Devices, Sunnyvale CA) and the supplied ImageQuant software according to the manufacturers instructions (FIG. 5, panels B and C). Protein load between samples was compared qualitatively by visual examination of filters stained with India-Ink. A complementary approach for assessing drug effect on viral proteins involved immune detection on a Western-blot using conditions and reagents described previously (Akanitapichat and Bastow, supra 2002).

HSV-1 = HSV-1 viral yield-reduction assay in Vero cells; assay type: cell-based, HSV-1 (KOS); details: for EC50: read-out: ED50 HSV-1
Experimental: as §1

HSV-1 proteins = assay: HSV-1 viral protein accumulation (Western immunoblot); assay type: cell-based; details: 10 micromolar, 16 hours, 2% (v/v) serum, FIG. 5D
[6] = Human betaherpesvirus 5, prevention of microscopic viral plaques, HEL cells
[7] = Vero cells, cell growth inhibition, two days of continuous treatment, read-out: CC50 Vero
[8] = cell growth inhibition, two days of continuous treatment
[9] = quantitative comparison, Table 1
[10] = Human alphaherpesvirus 1, viral yield-reduction, 1 PFU per cell in 5% (v/v) serum, Vero cells
[11] = Human alphaherpesvirus 2, viral yield-reduction, 1 PFU per cell in 5% (v/v) serum, Vero cells

SMILES: COc1ccc2[nH]c3cc(OCc4ccccc4)cc(O)c3c(=O)c2c1 [Compound 9, 3-Benzyloxy-1-hydroxy-7-methoxyacridone]
- anti-HCMV activity relative to compound 2 (HCMV): about five-fold less active than 2
- EC50 (HCMV; [6]): 6.9 ± 0.6 µM
- inhibition of HCMV replication in plaque-elimination screen (HCMV; HEL cells): inhibited HCMV but not HSV-2 replication
- inhibition of HSV-2 replication in plaque-elimination screen (HSV-2 [1]): inhibited HCMV but not HSV-2 replication

SMILES: O=C(O)P(=O)(O)O [PFA, phosphonoformic acid]
- EC50 (HCMV; [6]): 70 ± 10 µM
- percent inhibition observed at the highest concentration tested, HEL growth (HEL): 11%
- CC50 at 2 days ([2]; HEL cells): > 500 µM
- percent inhibition observed at the highest concentration tested, Vero growth (Vero): 11%
- CC50 at 2 days [3, 7]: > 500 µM
- EC50 (HSV-2 [4]; Human alphaherpesvirus 2, Vero): 60 ± 5 µM

SMILES: COc1cc(O)c2c(=O)c3cc(O)ccc3[nH]c2c1 [Compound 4, 1,7-Dihydroxy-3-methoxyacridone]
- inhibition of HSV-2 replication in plaque-elimination screen (HSV-2 [1]): only inhibited HSV replication
- CC50 at 2 days ([3]; Vero cells, read-out: CC50 against Vero replication): 25 µM

SMILES: O=c1c2cc(O)ccc2[nH]c2cc(O)cc(O)c12 [1,3,7-trihydroxyacridone]
- selectivity of anti-HSV action (HSV): 3 fold

SMILES: COc1cc(O)c2c(=O)c3cccc(OC)c3[nH]c2c1 [Compound 5, 3,5-Dimethoxy-1-hydroxyyacridone]
- CC50 (host cell replication): 33 µM
- inhibition of HCMV replication in plaque-elimination screen (HCMV; HEL cells): inactive
- inhibition of HSV-2 replication in plaque-elimination screen (HSV-2 [1]): inactive

SMILES: COc1cc(O)c2c(=O)c3cc(OC(C)C)ccc3[nH]c2c1 [Compound 13, 1-Hydroxy-7-isopropoxy-3-methoxyacridone]
- inhibition of HCMV replication in plaque-elimination screen (HCMV; HEL cells): active
- CC50 at 2 days ([2]; HEL cells): 12 µM

SMILES: COc1cc(O)c2c(=O)c3cccc(O)c3n(C)c2c1OC [Citrusinine-I]
- HSV-2 late protein synthesis remaining [5]: about 10 % of control
- activity against HCMV, in words (HCMV): selective inhibitor
- CC50 (HEL; [8]): 41 ± 5 µM
- inhibition of HSV-2 replication in plaque-elimination screen (HSV-2 [1]): HSV plaque-size was uniformly smaller in the presence of Citrusinine I but the number of visible plaques was not reduced
- CC50 (Vero; [8]): 27 ± 4 µM
- activity against HSV-1 (KOS), in words (HSV-1; [9]): inactive
- activity against HSV-2, in words (HSV-2 [4]; [9]): selective inhibitor
- HSV-2 replication remaining (HSV-2 [4]; twenty micromolar, 0.1 PFU, 22 hours, 2% (v/v) serum): about 10 % of control

SMILES: COc1ccc2[nH]c3cc(OC(C)C)cc(O)c3c(=O)c2c1 [Compound 8, 1-Hydroxy-3-isopropoxy-7-methoxyacridone]
- inhibition of HCMV replication in plaque-elimination screen (HCMV; HEL cells): almost completely preventing the formation of microscopic viral plaques
- inhibition of HSV-2 replication in plaque-elimination screen (HSV-2 [1]): almost completely preventing the formation of microscopic viral plaques
- viral release (HSV-2 [4]; 10 μM in 2% (v/v) serum, 0.001 PFU per cell HSV-2, up to forty-eight hours after infection): completely prevented viral release
- inhibition at 10 µM (HSV-2 [4]; Human alphaherpesvirus 2, Vero, 10 μM in 2% (v/v) serum, 0.001 PFU per cell HSV-2, forty-eight hours, read-out: inhibition of production of cell-associated virus): 80%

SMILES: COc1ccc2[nH]c3cc(O)cc(O)c3c(=O)c2c1 [Compound 3, 1,3-Dihydroxy-7-methoxyacridone]
- inhibition of HCMV replication in plaque-elimination screen (HCMV; HEL cells): inactive
- inhibition of HSV-2 replication in plaque-elimination screen (HSV-2 [1]): inactive

SMILES: C=CCOc1cc(O)c2c(=O)c3cc(OC)ccc3[nH]c2c1 [Compound 10, 3-Allyloxy-1-hydroxy-7-methoxyacridone]
- inhibition of HCMV replication in plaque-elimination screen (HCMV; HEL cells): almost completely preventing the formation of microscopic viral plaques
- percent inhibition observed at the highest concentration tested, HCMV (HCMV): 80%
- activity against HCMV, in words (HCMV): at least as active as the 3,7-dimethoxy lead (2)
- percent inhibition observed at the highest concentration tested, HEL growth (HEL): 33%
- CC50 at 2 days ([2]; HEL cells): > 50 µM
- inhibition of HSV-2 replication in plaque-elimination screen (HSV-2 [1]): almost completely preventing the formation of microscopic viral plaques
- effect on HSV-1 viral protein accumulation (HSV-1 proteins): no effect
- CC50 at 2 days [3, 7]: 95 ± 2 µM
- selectivity, inhibition of HSV-1 replication (HSV-1): 41 fold
- change of ED50 concentration for inhibition of viral release (HSV-1; HSV-1, low viral load (0.01 PFU) and low serum (0.5% v/v), FIG. 4 panel D): decreased about six-fold
- inhibition at 10 µM (HSV-1; Human alphaherpesvirus 1, Vero, 10 micromolar, 16 hours, 2% (v/v) serum, various viral loads, FIG. 5D, read-out: inhibition of HSV-1 viral replication): 64 to 95%
- EC50 (HSV-1; [10]): 2.3 ± 0.3 µM
- selectivity, inhibition of HSV-2 replication (HSV-2 [4]): 24 fold
- EC50 (HSV-2 [4]; [11]): 3.9 ± 1 µM

SMILES: Nc1nc2c(ncn2COCCO)c(=O)[nH]1 [ACV, Acyclovir]
- EC50 (HCMV; [6]): > 200 µM
- activity against HCMV, in words (HCMV): inactive
- CC50 at 2 days ([2]; HEL cells): > 500 µM
- effect on HSV-1 viral protein accumulation (HSV-1 proteins): abolished
- percent inhibition observed at the highest concentration tested, Vero growth (Vero): 41%
- CC50 at 2 days [3, 7]: > 200 µM
- EC50 (HSV-1; [10]): 0.2 µM
- activity against HSV-2 relative to HSV-1 (HSV-2 [4]): four-fold less active
- EC50 (HSV-2 [4]; [11]): 0.8 ± 0.1 µM

SMILES: O=c1c2cccc(Cl)c2[nH]c2cc(O)cc(O)c12 [Compound 1, 5-chloro-1,3-dihydroxyacridone]
- EC50 (HCMV; Human betaherpesvirus 5, HEL): > 50 µM
- percent inhibition observed at the highest concentration tested, HCMV (HCMV): 25%
- percent inhibition observed at the highest concentration tested, HEL growth (HEL): 18%
- CC50 at 2 days [2]: > 50 µM
- selectivity of anti-HSV action (HSV): 26 fold
- percent inhibition observed at the highest concentration tested, Vero growth (Vero): 23%
- CC50 at 2 days ([3]; cell growth inhibition, two days of continuous treatment, read-out: CC50 Vero): > 50 µM
- EC50 (HSV-1; Human alphaherpesvirus 1, Vero): 4.3 ± 0.8 µM
- EC50 (HSV-2 [4]; Human alphaherpesvirus 2, Vero): 3.8 ± 0.3 µM
